A word on the viability, T/C: it is the ratio of treated to control. The term IC50 denotes the concentration that inhibits the measured activity by half.

viability, T/C and IC50 data for twelve molecules are collected here from PubChem BioAssay AID2060486 (Molecular Pharmacology Branch, DTP, NCI, 2025).

This test has as its system IGROV1 complex spheroids (HUVEC, MSC), viability % test/control. Kind of test: Anticancer human tumor IGROV1 cell line growth inhibition [GQUAD].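 As to all read-outs here: spheroids exposed to compounds for 7 days before readout.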 The note with it: for viability, T/C: stronger effect = lower value. An excerpt: DNA G-quadruplex Stabilizer Agents in Combinations in Complex Spheroids
A high-throughput screen of multi-cell type tumor spheroids was designed to identify active combinations of DNA G-quadruplex stabilizer agents and targeted small molecules. Complex spheroids include a stromal component modeled by human endothelial cells (HUVEC) and fibroblasts modeled by human mesenchymal stem cells (MSCs). The concentration ranges selected for each drug and investigational agent were based upon clinically achievable concentrations if the clinical Cmax of the agent was known.
Compounds. The drugs and investigational agents: pidnarulex (CX-5461; NSC782164), APTO-253 (NSC789042), BRACO-19 (NSC847499), peposertib (NSC802822), ceralasertib (NSC780249), elimusertib (NSC800525), camonsertib (NSC841442), AZD-1390 (NSC803789), olaparib (NSC753686), talazoparib (NSC767125), ART-558 (NSC835418), sotorasib (NSC818433), MRTX-1133 (NSC836407), SN-38 (NSC673596), topotecan (NSC609699), etoposide (NSC141540), doxorubicin (NSC123127), gemcitabine (NSC613327), 5-fluorouracil (NSC19893), paclitaxel (NSC125973), vemurafenib (NSC761431), panobinostat (NSC761190), R-306465 (JNJ-16241199; NSC773264), adavosertib (NSC754352), TP-3654 (NSC805149), carboplatin (NSC241240), KSQ-4279 (NSC840948), and staurosporine (NSC755774) were obtained from the National Cancer Institute (NCI) Developmental Therapeutics Program Chemical Repository (34). The FDA-approved anticancer drug set is available from the NCI Developmental Therapeutics Program. […] The stock solutions were prepared in dimethyl sulfoxide (DMSO, Sigma-Aldrich, St. Louis, MO, cat. D2650) at 800-fold the tested concentration and stored at -70 degrees C prior to their use. All drugs and investigational agents were tested over a range starting from a high concentration at or near the clinical Cmax and decreasing in half-log increments. If the clinical Cmax for an agent had not been determined, the highest concentration tested was 10 microM.
2.3 Cell Culture. All cells were maintained in an incubator at 37 degrees C and 5% CO2 with 95% humidity. The PDC lines were cultured according to standard operating procedures established by the NCI PDMR. All PDCs were thawed and cultured in Matrigel-coated flasks prepared with a working solution of 1X Ham's F-12 nutrient mix, without supplementation (Invitrogen, cat. 11765054), 100 U/mL penicillin-streptomycin (Invitrogen, cat. 15140122), and 2.5% Matrigel (Corning Inc., cat. 354248) for the first three passages. The 857933-349-R-J2-PDC line was cultured in 6C/Colon 1B media, which includes advanced DMEM/F-12 (Thermo Fisher Scientific, cat. 12634028), 10 mM HEPES (Thermo Fisher Scientific, cat. 15630080), 1X GlutaMAX supplement (Thermo Fisher Scientific, cat. 35050061), 0.1 mg/mL primocin (InvivoGen, cat. ant-pm-2), 10% defined fetal bovine serum, heat inactivated (HyClone Laboratories Inc., cat. SH30070.03HI), 50% L-WRN conditioned media (ATCC, cat. CRL-3276), 1.25 mM N-Acetyl-L-cysteine (Sigma-Aldrich, cat. A9165), 10 mM nicotinamide (Sigma-Aldrich, cat. N0636), 1X B-27 supplement (Thermo Fisher Scientific, cat. 17504044), 1X N-2 supplement (Thermo Fisher Scientific, cat. 17502048), 10 microM Y-27632 dihydrochloride (Tocris Bioscience, cat. 1254), and 50 ng/mL human EGF recombinant protein (Thermo Fisher Scientific, cat. PHG0311). The 485176-168-R4-J1-PDC line was cultured in Panc media, which includes all 6C/Colon 1B media components plus 100 ng/mL human FGF-10 (Thermo Fisher Scientific, cat. 100-26), 500 nM SB-431542 (Selleckchem, cat. S1067), and gastrin (Tocris, cat. 3006).
[…]

Values joined by “and” are separate entries in the source; they are usually repeats but may differ in a detail not shown here. Equal entries are not always repeated.

In the case of `CC(C)n1c(=O)n(C)c2cnc3cc(F)c(-c4ccc(OCCCN5CCCCC5)nc4)cc3c21`, the viability, T/C was 91.1% and 96.5% and 97% (compound 0.0316 µM); 87.8% and 82.1% and 91.4% (compound 0.1 µM); 91.3% and 101% and 92.9% (compound 0.316 µM); 68.5% and 77.6% and 81.7% (compound 1 µM); 49.1% and 59.8% and 61.3% (compound 3.16 µM); 16.9% and 16.3% and 16.1% (compound 10 µM). Further, the IC50 (curve of compound) was 2820 nM and 4020 nM and 4200 nM.
In the case of `CC1COCCN1c1cc(-c2ccnn2C)c2ccnc(-c3ccn[nH]3)c2n1` (stereo not drawn), the viability, T/C runs as follows: (compound 0.0316 µM) 81.8% and 73% and 68.8%; (compound 0.1 µM) 26.6% and 25.6% and 26.2%; (compound 0.316 µM) 11.2% and 10.4% and 10.8%; (compound 1 µM) 7.62% and 7.53% and 5.64%; (compound 3.16 µM) 4.7% and 5.08% and 4.64%; (compound 10 µM) 3.56% and 3.83% and 3.46%. Besides, the half-maximal inhibitory concentration (IC50) (curve of compound) is 61.9 nM and 55.2 nM and 52.7 nM.
In the case of `CC1COCCN1c1cc(C2(O)CC3CCC(C2)O3)c2cnn(-c3ccn[nH]3)c2n1` (stereo not drawn), the viability, T/C is, setting by setting: (compound 0.0316 µM) 51.5% and 57.1% and 50.6%; (compound 0.1 µM) 16.8% and 21.7% and 20.7%; (compound 0.316 µM) 7.14% and 8.09% and 7.26%; (compound 1 µM) 4.84% and 5.33% and 5.42%; (compound 3.16 µM) 2.68% and 4.74% and 3.78%; (compound 10 µM) 1.72% and 2.09% and 2.04%. Also, the IC50 (curve of compound) is 32.6 nM and 39.6 nM and 32.3 nM.
`CC1COCCN1c1cc(C2(S(C)(=N)=O)CC2)nc(-c2ccnc3[nH]ccc23)n1` (stereo not drawn): the viability, T/C reads like this: (compound 0.0316 µM) 105% and 96.1% and 78.7%; (compound 0.1 µM) 73.3% and 84.4% and 94.9%; (compound 0.316 µM) 95.4% and 94.3% and 89.6%; (compound 1 µM) 59.5% and 44.8% and 50.7%; (compound 3.16 µM) 12.6% and 14.1% and 58.1%; (compound 10 µM) 7% and 6.85% and 8.5%. Besides, the IC50 (curve of compound) was 1260 nM and 881 nM and 2970 nM.
In the case of `CC[C@@]1(O)C(=O)OCc2c1cc1n(c2=O)Cc2cc3c(CN(C)C)c(O)ccc3nc2-1`, the viability, T/C is, setting by setting: (compound 0.000999 µM) 107% and 86.8% and 96.1%; (compound 0.00316 µM) 92.1% and 95.8% and 83%; (compound 0.00999 µM) 83.8% and 92.3% and 80.7%; (compound 0.0316 µM) 42.3% and 42.6% and 30.4%; (compound 0.0999 µM) 10.7% and 11.3% and 11%; (compound 0.316 µM) 11.4% and 10.2% and 9.99%. In addition, the half-maximal inhibitory concentration (IC50) (curve of compound) was 24.8 nM and 26.6 nM and 20.1 nM.
On to `CCc1c2c(nc3ccc(O)cc13)-c1cc3c(c(=O)n1C2)COC(=O)[C@]3(O)CC`, for which the viability, T/C reads like this: (compound 0.000999 µM) 50.7% and 46.3% and 39%; (compound 0.00316 µM) 13.2% and 15%; (compound 0.00999 µM) 10.7% and 11.2% and 9.68%; (compound 0.0316 µM) 8.77% and 9.76% and 9.57%; (compound 0.0999 µM) 4.33% and 4.71% and 5.08%; (compound 0.316 µM) 1.32% and 1.27% and 1.78%. Besides, the half-maximal inhibitory concentration (IC50) (curve of compound) is 1 nM and < 0.999 nM.
Turning to `CN(C)c1ccc(Nc2c3ccc(NC(=O)CCN4CCCC4)cc3nc3cc(NC(=O)CCN4CCCC4)ccc23)cc1`, the viability, T/C reads like this: (compound 0.0316 µM) 103% [middle of 12 runs]; (compound 0.1 µM) 101% [middle of 12 runs]; (compound 0.316 µM) 103% [middle of 12 runs]; (compound 1 µM) 100% [middle of 12 runs]; (compound 3.16 µM) 87.4% [middle of 12 runs]; (compound 10 µM) 52.3% [middle of 12 runs].
Turning to `COc1ccc([C@@H](O)c2cc(-c3ncnc4cc(N5CCOCC5)ccc34)c(F)cc2Cl)nn1`, the viability, T/C was 98.6% and 95.7% and 99.4% (compound 0.0316 µM); 88.4% and 81.6% and 65.6% (compound 0.1 µM); 91.1% and 92.8% and 94.7% (compound 0.316 µM); 50.6% and 64.3% and 60.5% (compound 1 µM); 20.1% and 18% and 17.6% (compound 3.16 µM); 6.24% and 5.2% and 5.02% (compound 10 µM). For the setting “curve of compound”, the IC50 was 1100 nM and 1440 nM and 1360 nM.
For `Cc1[nH]c2ccccc2c1CCNCc1ccc(/C=C/C(=O)NO)cc1`, the viability, T/C (compound 0.000999 µM) was 108% and 102% and 86.4%; the viability, T/C (compound 0.00316 µM) was 89.8% and 85.8% and 90.5%; the viability, T/C (compound 0.00999 µM) was 83.8% and 79.4% and 81.5%; the viability, T/C (compound 0.0316 µM) was 34.2% and 33.4% and 38.3%; the viability, T/C (compound 0.0999 µM) was 4.41% and 3.52% and 3.65%; the viability, T/C (compound 0.316 µM) was 0.26% (2×) and 0.27%. The IC50 (curve of compound) is 21.7 nM and 20.5 nM and 23.2 nM.
For `Cc1cnc(CNC(=O)c2c(=O)c3ccc(N4CCCN(C)CC4)nc3n3c2sc2ccccc23)cn1`, the viability, T/C is, setting by setting: (compound 0.0316 µM) 71.2% [middle of 12 runs]; (compound 0.1 µM) 40.9% [middle of 12 runs]; (compound 0.316 µM) 27% [middle of 12 runs]; (compound 1 µM) 16.7% [middle of 12 runs]; (compound 3.16 µM) 11.6% [middle of 12 runs]; (compound 10 µM) 11.3% [middle of 12 runs]. Also, the half-inhibitory concentration (IC50) (compound alone, run of 03/18/2024) is 68.4 nM [middle of 11 runs].
Turning to `Cn1ncnc1[C@H]1c2n[nH]c(=O)c3cc(F)cc(c23)N[C@@H]1c1ccc(F)cc1`, the viability, T/C is 97.2% and 105% and 82.2% (compound 0.000999 µM); 92.2% and 77% and 90.2% (compound 0.00316 µM); 76.3% and 86.3% and 86.2% (compound 0.00999 µM); 70% and 67.1% and 66.2% (compound 0.0316 µM); 53.7% and 55% and 46.8% (compound 0.0999 µM); 36.7% and 29.4% and 34.7% (compound 0.316 µM). The IC50 (curve of compound) is 128 nM and 110 nM and 77.8 nM.
Take `O=C(c1cc(Cc2n[nH]c(=O)c3ccccc23)ccc1F)N1CCN(C(=O)C2CC2)CC1`: the viability, T/C by setting is: (compound 0.0316 µM) 87.6% and 92% and 100%; (compound 0.1 µM) 91.8% and 91.9% and 84.2%; (compound 0.316 µM) 93.4% and 85.7% and 102%; (compound 1 µM) 77.6% and 81.8% and 83.7%; (compound 3.16 µM) 63.9% and 52.6% and 40%; (compound 10 µM) 26.5% and 25.6% and 20.9%. For the same molecule, the concentration for half-maximal inhibition (IC50) (curve of compound) was 4760 nM and 3580 nM and 2430 nM.
